The results in this text go back to patent US10077232B2, “Cyclic cationic lipids and methods of use” (ARBUTUS BIOPHARMA CORPORATION, priority 2010, dated 2018).

This series can be described thus: TNS assay, apparent pKa of cationic lipids in 1:57 SNALP.

Each structure is given as a SMILES string.

Description: The apparent pKa of the cationic lipids present in these SNALP formulations was determined using a 2-(p-toluidinyl)-naphthalene-6-sodium sulfonate (TNS) assay. TNS is a negatively-charged indicator of membrane potential that is electrostatically attracted to positively charged membranes (see, Bailey and Cullis, Biochemistry, 33 12573-80 (1994)). Subsequent adsorption to the lipid membrane results in the immediate environment of the TNS becoming more lipophilic, removing the water molecules that otherwise quench TNS fluorescence. As a result, TNS measures the surface potential of the particle, wherein the more positive the surface potential, the greater the level of fluorescence. The surface pKa values of each SNALP formulation were determined by varying the local pH in the presence of TNS. By plotting fluorescence versus pH, the pKa of the cationic lipid can be estimated in the particle as the pH where fluorescence equals 50% of total fluorescence.

As to `CCC1CC1CC1CC1CC1CC1CCCCCCCCOCC(CN(C)C)OCCCCCCCCC1CC1CC1CC1CC1CC1CC` (stereo not drawn) [CP-DLenDMA], the pKa is around 5.85.

Turning to `CCCCCC1CC1CC1CC1CCCCCCCCOCC(CN(C)C)OCCCCCCCCC1CC1CC1CC1CCCCC` (stereo not drawn) [CP-DLinDMA], the pKa is around 5.8.

With `CCCCCCCCC1CC1CCCCCCCCOCC(CN(C)C)OCCCCCCCCC1CC1CCCCCCCC` (stereo not drawn) [CP-DODMA], the pKa was around 5.8.

Regarding `CCCCCCCCCCCC1CC1CCCCCOCC(CN(C)C)OCCCCCC1CC1CCCCCCCCCCC` (stereo not drawn) [CP-DPetroDMA], the pKa is around 5.95.

As to `CCC1CC1CC1CC1CC1CC1CCCCCCCCC(CCCCCCCCC1CC1CC1CC1CC1CC1CC)OC(=O)CCCN(C)C` (stereo not drawn) [CP-LenMC3], the pKa was around 6.1.

As for `CCCCCC1CC1CC1CC1CC1CC1CCCCCOCC(CN(C)C)OCCCCCC1CC1CC1CC1CC1CC1CCCCC` (stereo not drawn) [CP-γ-DLenDMA], the pKa was around 5.8.

`CCCCCC1CC1CC1CC1CC1CC1CCCCCC(CCCCCC1CC1CC1CC1CC1CC1CCCCC)OC(=O)CCCN(C)C` (stereo not drawn) [CP-γ-LenMC3]: the pKa was around 6.

Take `CCCCC/C=C\C/C=C\CCCCCCCCOCC(COCC(CCN(C)C)OCCCCCCCC/C=C\C/C=C\CCCCC)OCCCCCCCC/C=C\C/C=C\CCCCC` (stereo not drawn) [Compound C2-TLinDMA, reference compound]: where the note is “1:57 SNALP with encapsulated ApoB siRNA, pH where TNS fluorescence equals 50% of total”, the “pKa (apparent, surface)” value is around 5.85.

Consider `CCCCC/C=C\C/C=C\C/C=C\CCCCCC(CCCCC/C=C\C/C=C\C/C=C\CCCCC)OC(=O)CCCN(C)C` [g-Len-MC3], for which the pKa is around 6.1.

Broadly, the pKa is the pH at which an ionisable group is half protonated.
